Measurements reported in PMC4920673, “Nitroimidazole carboxamides as antiparasitic agents targeting Giardia lamblia, Entamoeba histolytica and Trichomonas vaginalis” (European Journal of Medicinal Chemistry, 2016).
In brackets after ≈: the same amount, converted by molar mass. Read-outs that look alike come from different tables or passages of the source.

Experiments:
[1] = cited from earlier work
G. lamblia WB (MtzS) = assay: ATP-bioluminescence growth/survival EC50 assay, G. lamblia WB; settings: for EC50: Giardia duodenalis; for S.I (CC50/EC50): average cytotoxicity against HEK293 and HepG2 / G. lamblia WB activity
Protocol: (§1) Compounds were screened for antiparasitic activity using an ATP-bioluminescence based assay for cell growth and survival, [24]. […] Viable cell numbers were determined in triplicate using the CellTiter-Glo Luminescent Cell Viability Assay.

G. lamblia 713M3 (MtzR) = assay: ATP-bioluminescence growth/survival EC50 assay, G. lamblia 713M3; assay type: cell-based, Giardia lamblia; settings: Giardia duodenalis
Protocol: as §1

E. histolytica HM1:IMSS = assay: ATP-bioluminescence growth/survival EC50 assay, E. histolytica; assay type: cell-based, Entamoeba histolytica; settings: Entamoeba histolytica
Protocol: as §1

T. vaginalis F1623 = assay: ATP-bioluminescence growth/survival EC50 assay, T. vaginalis; assay type: cell-based, Trichomonas vaginalis; settings: Trichomonas vaginalis
Protocol: as §1

[2] = test system: C. difficile 630 (ATCC BAA-1382); assay: Broth microdilution MIC assay, C. difficile 630; assay type: cell-based, Clostridium difficile; settings: Clostridioides difficile, ATCCBAA1382; strain 630, MtzS; median of n = 4; read-out: MIC C. difficile 630
Summary of the method: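 Compounds two-fold serially diluted against overnight anaerobic BHIS cultures of the strain, following CLSI methods modified in broth and inoculum for C. difficile. Plates incubated 24 h at 37 °C; MIC is the lowest concentration without visible growth, median reported with range.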

[3] = test system: C. difficile NAP1/027 (ATCC BAA-1803); assay: Broth microdilution MIC assay, C. difficile NAP1/027; assay type: cell-based, Clostridium difficile; settings: Clostridioides difficile, ATCCBAA1803; strain NAP1/027
Summary of the method: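 Strains grown anaerobically in BHIS at 37 °C overnight; compounds two-fold serially diluted (64 to 0.03 μg/mL) in pre-reduced medium under anaerobic atmosphere (5% H2, 10% CO2, 85% N2). Plates incubated 24 h at 37 °C; MIC taken as lowest concentration without visible growth, median of replicates reported.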

[4] = Resazurin cytotoxicity assay, HEK293; assay type: cell-based, Human; settings: human, 24 h, highest concentration 100 μM, n = 3, read-out: CC50 HEK 293
Summary of the method: (§2)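 Cells pre-cultured 24 h in DMEM/10% FBS at 37 °C, then exposed 24 h to compound dilution series (top 100 μM). Viability by 5 μM resazurin, 2 h, fluorescence 560/590 nm; 1% Triton X-100 as lysis control; CC50 from curve fitting.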

[5] = Resazurin cytotoxicity assay, HepG2; assay type: cell-based, Human; settings: human, 24 h
Summary of the method: as §2

[6] = Plasma protein binding by ultrafiltration; assay type: in vitro ADME; settings: human, pooled human plasma (100%), 5 μM, 100% human plasma, 37 °C, 30 min, ultrafiltration; for fraction unbound at 0.5 h, 5 µM: read-out: Plasma protein binding (% bound) (converted)
Protocol: Plasma Protein Binding (PPB) was performed using an Ultrafiltration method, [28]. […] Samples were incubated at […] for 30 min, then centrifuged at 14,000 × g for 8 min, with the clear supernatant transferred to a vial for LC/MS/MS analysis. […] The fraction of unbound compound was calculated by determining the concentration of the filtered sample and the concentration of unfiltered sample. […] LC/MS/MS parameters are detailed in the supplementary information (Supplementary Table 1).

[7] = Metabolic stability in liver microsomes; assay type: in vitro ADME, human; settings: 5 μM, human liver microsomes 1 mg/mL, NADPH
Protocol: Metabolic stability studies were performed with human liver microsomes (HMMC-PL, Lot# PL050B-B, Thermo Fisher Scientific USA) with test compound (5 μM) degradation monitored by LC/MS/MS analysis. Stock solutions (2.5 mM) of the test compounds were prepared in DMSO. […] The reaction was initiated by addition of NADPH solution (cofactor) in potassium phosphate buffer (final concentration 1 mM). Aliquots (180 μL) from the reaction mixture were withdrawn (t = 0, 10, 30, 60 and 120 min) and quenched by adding ice-cold stop solution (540 μL) comprising 0.5 μM carbutamide internal standard in acetonitrile: methanol: formic acid (1: 1: 0.001). Reaction samples were incubated at 4 °C for 30 min, centrifuged at 14,000 × g for 8 min and the clear supernatant was transferred to a vial for LC/MS/MS analysis. The percentage of compound metabolised at different times was calculated as a percentage of the levels at the start of incubation (t = 0 min sample). Matrix blank was also prepared as a control. […] LC/MS/MS parameters are detailed in the supplementary information (Supplementary Table 1).

T. vaginalis = test system: T. vaginalis; parameters: method as in earlier work; settings: cited from earlier work
H. meleagridis = test system: H. meleagridis; parameters: method as in earlier work; settings: turkey; cited from earlier work
[8] = test system: G. lamblia WB trophozoites; assay: Light microscopy of G. lamblia WB growth and survival; assay type: cell-based, Giardia lamblia
Protocol: The effect of compounds on G. lamblia WB growth and survival was examined by light microscopy. Briefly, stock compounds were diluted in DMSO (100%) to give 400 × final concentration of compound. […]. Assay plates were incubated for 48 h at 37 °C in the GasPak™ EZ Anaerobe Gas Generating Pouch Systems (VWR, West Chester, PA) to maintain anaerobic conditions throughout the incubation period. The assays were performed in triplicate (3 wells/treatment). […]

HEK293 cells = assay: Resazurin cytotoxicity assay, HEK293; assay type: cell-based, Human; settings: HEK293 CC50 / G. lamblia WB EC50
Summary of the method: as §2

HepG2 cells = assay: Resazurin cytotoxicity assay, HepG2; assay type: cell-based, Human; settings: HepG2 CC50 / G. lamblia WB EC50
Summary of the method: as §2

Giardia = test system: Giardia; parameters: method as in PMID 23403423; settings: cited from earlier work
[9] = read-out: EC50 G. lamblia WB, MtzS strain WB, minimum n = 3
[10] = read-out: pEC50 ± SE G. lamblia WB, MtzS strain WB (converted)
[11] = read-out: EC50 G. lamblia 713M3, MtzR strain 713M3, minimum n = 3
[12] = read-out: pEC50 ± SE G. lamblia 713M3, MtzR strain 713M3 (converted)
[13] = read-out: EC50 E. histolytica HM1:IMSS
[14] = read-out: pEC50 ± SE E. histolytica HM1:IMSS (converted)
[15] = read-out: EC50 T. vaginalis F1623, MtzS, minimum n = 3
[16] = read-out: pEC50 ± SE T. vaginalis F1623, MtzS (converted)
[17] = HepG2 cells, highest concentration 100 μM, n = 3, read-out: CC50 Hep G2
[18] = highest concentration 100 μM, n = 3, read-out: CC50 Hep G2

Row | Structure (SMILES) | EC50 (G. lamblia WB (MtzS); [9]) | EC50 (G. lamblia WB (MtzS); [10]) | S.I (CC50/EC50) (G. lamblia WB (MtzS)) | EC50 (G. lamblia 713M3 (MtzR); [11]) | EC50 (G. lamblia 713M3 (MtzR); [12]) | EC50 (E. histolytica HM1:IMSS; [13]) | EC50 (E. histolytica HM1:IMSS; [14]) | EC50 (T. vaginalis F1623; [15]) | EC50 (T. vaginalis F1623; [16]) | MIC [2] | MIC [3] | CC50 at 24 h ([4]; HEK293 cells) | CC50 at 24 h [5, 17] | fraction unbound at 0.5 h, 5 µM [6] | Microsome stability (% remaining at 2 h) [7] | CC50 at 24 h [4] | other results
1 | CCS(=O)(=O)CCn1c([N+](=O)[O-])cnc1C [Compound 2, tinidazole] | – | – | – | – | – | – | – | – | – | – | – | – | – | – | – | – | Plasma protein binding [1]: mostly unbound
2 | Cn1c([N+](=O)[O-])cnc1C(=O)NCc1ccc(F)cc1 [Compound 8a, N-(4-fluorobenzyl)-1-methyl-5-nitro-1H-imidazole-2-carboxamide] | 3.5 µM | 3.47 µM | >29 | 13 µM | 12.9 µM | 9.7 µM | 9.77 µM | 5.2 µM | 5.25 µM | > 64 µg/mL | > 64 µg/mL | > 100 µM | > 100 µM | 0.05 | 88 % remaining | – | fraction unbound at 30 min, 5 μM ([6]; read-out: Plasma protein binding (% bound)): ≤ 0.06
3 | CN(C)C(=O)c1ncc([N+](=O)[O-])n1C [Compound 8g, N,N,1-trimethyl-5-nitro-1H-imidazole-2-carboxamide] | 2.4 µM | 2.4 µM | >42 | > 20 µM | > 20 µM | 14 µM | 14.1 µM | 1.3 µM | 1.29 µM | 32 µg/mL (≈ 161 µM) | 64 µg/mL (≈ 323 µM) | > 100 µM | > 100 µM | – | – | – | Activity in in vivo mouse model of T. vaginalis infection (T. vaginalis): activity; Activity in in vivo model of H. meleagridis infection (H. meleagridis): activity
4 | Cn1c([N+](=O)[O-])cnc1C(=O)N1CCOCC1 [Compound 8h, (1-methyl-5-nitro-1H-imidazol-2-yl)(morpholino)methanone] | 1.6 µM | 1.58 µM | >63 | 11 µM | 11.2 µM | 14 µM | 14.1 µM | 0.6 µM | 0.575 µM | 32 µg/mL (≈ 133 µM) | 32 µg/mL (≈ 133 µM) | > 100 µM | > 100 µM | 0.91 | 97 % remaining | – | Activity in in vivo mouse model of T. vaginalis infection (T. vaginalis): activity; Activity in in vivo model of H. meleagridis infection (H. meleagridis): activity
5 | O=C(NCc1ccc(F)cc1)c1ncc([N+](=O)[O-])[nH]1 [Compound 12a, N-(4-fluorobenzyl)-5-nitro-1H-imidazole-2-carboxamide] | 0.5 µM | 0.525 µM | – | 2.4 µM | 2.34 µM | 3.6 µM | 3.63 µM | 2.3 µM | 2.34 µM | 4 µg/mL (≈ 15.1 µM) | 4 µg/mL (≈ 15.1 µM) | – | – | – | 94 % remaining | > 100 µM | CC50 at 24 h [5, 18]: > 100 µM; Parasite cell growth by microscopy ([8]; 3 × EC50 (metronidazole 18 μM, 12a 1.5 μM), 48 h, relative to vehicle control): inhibited; Morphology of treated G. lamblia ([8]; 3 × EC50, 48 h, phase contrast): altered
6 | O=C(NCc1ccc(OC(F)(F)F)cc1)c1ncc([N+](=O)[O-])[nH]1 [Compound 12b, 5-nitro-N-(4-(trifluoromethoxy)benzyl)-1H-imidazole-2-carboxamide] | 0.2 µM | 0.245 µM | – | 2.5 µM | 2.51 µM | 4.5 µM | 4.47 µM | 2.2 µM | 2.24 µM | 16 µg/mL (≈ 48.5 µM) | 8 to 16 µg/mL (≈ 24.2 to 48.5 µM) | – | 93 µM | – | – | > 100 µM | Selectivity index (CC50/EC50) (HEK293 cells): > 500; CC50 at 24 h ([5]; HepG2 cells, read-out: pCC50 ± SE Hep G2 (converted)): 93.3 µM; S.I (CC50/EC50), second value of a split cell (HepG2 cells): 465
7 | O=C(c1ncc([N+](=O)[O-])[nH]1)N1CCOCC1 [Compound 12h, Morpholino(5-nitro-1H-imidazol-2-yl)methanone] | 8.8 µM | 8.71 µM | >11 | > 20 µM | > 20 µM | 5.1 µM | 5.13 µM | 2.9 µM | 2.88 µM | 2 µg/mL (≈ 8.84 µM) | 2 µg/mL (≈ 8.84 µM) | > 100 µM | > 100 µM | 0.22 | 100 % remaining | – | –
8 | CCOC(=O)c1nc([N+](=O)[O-])cn1Cc1ccc(OC(F)(F)F)cc1 [Compound 14c, Ethyl 4-nitro-1-(4-(trifluoromethoxy)benzyl)-1H-imidazole-2-carboxylate] | 6 µM | 6.03 µM | >17 | – | – | 51 µM | 51.3 µM | – | – | > 64 µg/mL | > 64 µg/mL | – | – | – | – | > 100 µM | CC50 at 24 h [5, 18]: > 100 µM; melting point: 112 °C
9 | CC(=O)OC[C@H]1O[C@@H]([S-])[C@H](OC(C)=O)[C@@H](OC(C)=O)[C@@H]1OC(C)=O.CCP(CC)CC.[Au+] [auranofin] | – | – | – | – | – | – | – | – | – | – | – | – | – | – | – | – | Effect on Giardia cells in prior study (Giardia): caused cell blebbing
10 | O=C(Nc1ncc([N+](=O)[O-])s1)c1ccccc1O [tizoxanide] | – | – | – | – | – | – | – | – | – | – | – | – | – | – | – | – | Plasma protein binding ([1]; active metabolite of nitazoxanide): highly plasma protein bound
